Test results from patent US7906510B2, “Amide derivative and pharmaceutical composition containing the same” (Dainippon Sumito Pharma Co., Ltd., priority 2008, dated 2011).
Structures can show the parent of a compound that is named as a salt.

Tests used:
[1] = tested on: Male Slc-Hartley guinea pigs; assay: Electrocardiographic assay for guinea pig; details: dose extending 5% of QTc; i.v. infusion for 15 minutes, anesthetized guinea pigs, ECG lead II
Procedure: Male Slc-Hartley guinea pigs were anesthetized to determine electrocardiogram (lead II) under artificial respiration. A drug solution was continuously and intravenously infused via cannula indwelled in cervical veins at a flow rate: 0.2 ml/kg/min for 15 minutes.

Male Slc-ddy mice = assay: Mouse defecation assay; format: in vivo; set-up: key: −: No Effect; +: Moderately Improved (p<0.05); ++: Significantly Improved (p<0.01); details: 3 mg/kg orally; stool weight 30, 60 and 120 minutes after administration; Dunnett assay vs control
Procedure: Male Slc-ddy mice (body weight 25 to 30 g) were used and allowed to ingest food and water ad libitum until commencement of experiments.
A group of 25 mice was divided into 5 groups, which 5 mice each per group were respectively transferred to fasting cages to adjust to new environments for about 1 hour. Then, each mouse was orally administered 3 mg/kg suspension of a test compound in 0.5% tragacanth solution to measure each stool weight of each group 30, 60, and 120 minutes after oral administration.
Efficacies were evaluated by Dunnett assay between test compounds and control.

5-HT4 receptor = target: T1, 5-HT4 receptor (Cavia porcellus, UniProt O70528); assay: Serotonin 4 (5-HT4) receptor binding assay; set-up: species or system guinea pig; details: inhibition of specific binding of 0.1 nM [3H]-GR113808; guinea pig striatum membrane preparations; 37° C., 30 minutes; read-out: IC50
T1 construct: the mixture was suspended to give receptor membrane preparations; from tissue; host or cells: guinea pig (Slc-Hartley) brain striatum membranes
Procedure: 5-HT4 receptor binding assay and preparations of receptor membrane preparations were carried out according to a method of Grossman et al. [see British J. Pharmacol., (1993) 109, 618].
Slc-Hartley guinea pigs (body weight 300 to 400 g) were decapitated to remove brain rapidly, and striatum was isolated. To the obtained tissues were added fifteenfold of Hepes buffer (50 mM, pH7.4, 4° C.), and the mixture was homogenized by Teflon® homogenizer and centrifuged at 48,000×g (4° C.) for 15 minutes. To the resulting precipitate was added Hepes buffer (1 ml) to 30 mg by wet weight of tissues, and the mixture was suspended to give receptor membrane preparations.
0.1 nM [^3H]-GR113808 {chemical name: [1-[2-(methylsulfonylamino)ethyl]-4-piperidinyl]methyl 1-methylindole-3-carboxylate}, receptor membrane preparations, and Hepes buffer (50 mM, pH7.4, 4° C., 1 ml) containing test compounds or 30 μM serotonin were placed in an assay tube, and incubated at 37° C. for 30 minutes. On quenching the reaction, the mixture was rapidly filtered on whatman GF/B filter, which was presoaked in 0.1% polyethyleneimine for 1 hour, by using Brandel cell Harvester, and washed with ice-cooled 50 mM Tris-HCl (pH7.7, 4 ml) three times. To the filter after filtration was added ACS II scintillator, and then a radioactivity was determined by a liquid scintillation counter.
50% inhibition concentrations (IC50) were determined from inhibition rates of test compounds to specific bindings which were obtained by subtracting nonspecific bindings from total binding amounts of [^3H]-GR113808.

T1 sequence (O70528 whole entry): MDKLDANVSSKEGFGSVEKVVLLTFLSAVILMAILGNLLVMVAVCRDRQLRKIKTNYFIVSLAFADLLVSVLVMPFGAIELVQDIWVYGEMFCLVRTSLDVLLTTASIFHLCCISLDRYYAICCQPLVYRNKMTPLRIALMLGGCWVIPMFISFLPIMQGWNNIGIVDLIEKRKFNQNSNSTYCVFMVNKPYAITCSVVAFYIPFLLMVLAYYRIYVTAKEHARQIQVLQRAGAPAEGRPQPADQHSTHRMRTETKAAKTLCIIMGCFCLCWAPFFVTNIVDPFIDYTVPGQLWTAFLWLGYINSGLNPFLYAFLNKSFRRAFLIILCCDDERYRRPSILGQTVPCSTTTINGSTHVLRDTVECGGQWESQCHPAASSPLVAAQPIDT

Structure (SMILES)	ED5% (mg/kg,i.v.) [1] [mg/kg]	Effect (Male Slc-ddy mice)	IC50 (5-HT4 receptor) [nM]	melting point
COc1cc(N)c(Cl)cc1C(=O)NC[C@H]1CN(CC2CCN(S(=O)(=O)N(C)C)CC2)CCO1.O=C(O)/C=C/C(=O)O [Example 80]	>30	+		
COc1cc(N)c(Cl)cc1C(=O)NC[C@H]1CN(CC2CCN(S(C)(=O)=O)CC2)CCO1 [Example 94]	>30	++	11.9	
C=CCOC(=O)N1CCC(CN2CCO[C@@H](CNC(=O)c3cc(Cl)c(N)cc3OC)C2)CC1 [Example 100]	>30	++		
COc1cc(N)c(Cl)cc1C(=O)NCC1CN(CC2CCN(C(=O)N(C)C)CC2)CCO1 (stereo not shown) [Example 67, 4-amino-5-chloro-N-[{4-[(1-dimethylcarbamoyl-4-piperidinyl)methyl]-2-morpholinyl}methyl]-2-methoxybenzamide]				179 to 180 °C
COC(=O)N1CCC(CN2CCO[C@@H](CNC(=O)c3cc(Cl)c(N)cc3OC)C2)CC1 [Example 92]	>30	+		
CCc1ccc(C(=O)N2CCC(CN3CCO[C@@H](CNC(=O)c4cc(Cl)c(N)cc4OC)C3)CC2)cc1 [Example 122]	>30	+	0.87	
COc1cc(N)c(Cl)cc1C(=O)NC[C@H]1CN(CC2CCN(C(C)=O)CC2)CCO1 [Example 221]	>30	++	45.2	
CCOc1cc(N)c(Cl)cc1C(=O)NCC1CN(CC2CCN(C(N)=O)CC2)CCO1 (stereo not shown) [Example 43, 4-amino-N-[{4-((1-carbamoyl-4-piperidinyl)methyl)-2-morpholinyl}methyl]-5-chloro-2-ethoxybenzamide]				201 to 207 °C
COc1cc(N)c(Cl)cc1C(=O)NC[C@H]1CN(CC2CCN(C(=O)CO)CC2)CCO1 (as salt: hydrochloride) [Example 198, 4-amino-5-chloro-N-[{4-[(1-hydroxyacetyl-4-piperidinyl)methyl]-2-morpholinyl}methyl]-2-methoxybenzamide hydrochloride]				164 to 167 °C (dec.)
COc1cc(N)c(Cl)cc1C(=O)NC[C@H]1CN(CC2CCN(C(=O)CNC(=O)c3ccccc3)CC2)CCO1 [Example 222]	>30	++	17.2	
COc1cc(N)c(Cl)cc1C(=O)N[C@H]1CCN(CCCOc2ccc(F)cc2)C[C@H]1OC (relative stereo) [Cisapride, cis-4-amino-5-chloro-N-[1-[3-(4-fluorophenoxy)propyl]-3-methoxy-4-piperidinyl]-2-methoxybenzamide, reference compound]	0.3	−		
CN(C)C(=O)N1CCC(CN2CCOC(CNC(=O)c3cc(Cl)c(N)c4c3OCC4)C2)CC1 (stereo not shown) [Example 135, 4-amino-5-chloro-N-[{4-[(1-dimethylcarbamoyl-4-piperidinyl)methyl]-2-morpholinyl}methyl]-2,3-dihydrobenzo[b]furan-7-carboxamide 1.5 fumarate]	>30	++	6.04	
COc1ccc(C(=O)N2CCC(CN3CCO[C@@H](CNC(=O)c4cc(Cl)c(N)cc4OC)C3)CC2)cc1 [Example 125]	>30	++	3.51	
COCCC(=O)N1CCC(CN2CCO[C@@H](CNC(=O)c3cc(Cl)c(N)cc3OC)C2)CC1 [Example 224]	>30	++	14.5	
COc1cc(N)c(Cl)cc1C(=O)NC[C@H]1CN(CC2CCN(C(=O)c3ccc(Cl)cc3)CC2)CCO1 [Example 115]		+	2.48	
COc1cc(N)c(Cl)cc1C(=O)NC[C@H]1CN(CC2CCN(C(=O)Nc3cccc(C(F)(F)F)c3)CC2)CCO1 [Example 54]		+	5.91	
CC(=O)N1CCC(CN2CCO[C@@H](CNC(=O)c3cc(Cl)c(N)c4c3OCC4)C2)CC1 [Example 231]		++	9.18	
COc1cc(N)c(Cl)cc1C(=O)NC[C@H]1CN(CC2CCN(C(=O)Nc3ccc(Cl)c(Cl)c3)CC2)CCO1 [Example 58]		+	1.97	
COc1cc(N)c(Cl)cc1C(=O)NC[C@H]1CN(CC2CCN(C(=O)Nc3ccccc3)CC2)CCO1 [Example 52]		−	1.94	

Structure (SMILES)	ED5% (mg/kg,i.v.) [1] [mg/kg]	Effect (Male Slc-ddy mice)	IC50 (5-HT4 receptor) [nM]	melting point
COc1cc(N)c(Cl)cc1C(=O)NCC1CN(CC2CCN(C(=O)n3ccnc3)CC2)CCO1 [Example 207, (S)-4-amino-5-chloro-N-[{4-[(1-imidazolecarbonyl-4-piperidinyl)methyl]-2-morpholinyl}methyl]-2-methoxybenzamide]	>30	++		
COc1cc(N)c(Cl)cc1C(=O)NC[C@H]1CN(CC2CCN(C(=O)C3CCOC3)CC2)CCO1 (stereo partly shown) [Example 226]	>30	++	21.2	
CCOc1cc(N)c(Cl)cc1C(=O)NC[C@H]1CN(CC2CCN(C(=O)c3ccc(C)cc3)CC2)CCO1 [Example 121]	>30	++	0.23	
CCOc1cc(N)c(Cl)cc1C(=O)NCC1CN(CC2CCN(C#N)CC2)CCO1 (stereo not shown) [Example 211, 4-amino-5-chloro-N-[{4-[(1-cyano-4-piperidinyl)methyl]-2-morpholinyl}-methyl]-2-ethoxybenzamide]				197 °C (dec.)
COc1cc(N)c(Cl)cc1C(=O)NC[C@H]1CN(CC2CCN(C(=O)CO)CC2)CCO1 [Example 198, 4-amino-5-chloro-N-[{4-[(1-hydroxyacetyl-4-piperidinyl)methyl]-2-morpholinyl}methyl]-2-methoxybenzamide hydrochloride]	>30	++	25.9	
COc1cc(N)c(Cl)cc1C(=O)NC[C@H]1CN(CC2CCN(C(=O)CC#N)CC2)CCO1 [Example 223]		++	18.6	
COc1cc(N)c(Cl)cc1C(=O)NC[C@H]1CN(CC2CCN(C(=O)[C@H](C)OC)CC2)CCO1 [Example 225]	>30	++	20.2	
COc1cc(N)c(Cl)cc1C(=O)NC[C@H]1CN(CC2CCN(C(=O)c3ccc(OC(C)=O)cc3)CC2)CCO1 [Example 169]	>30	++	6.09	
COc1cc(N)c(Cl)cc1C(=O)NC[C@H]1CN(CC2CCN(C(=O)c3ccccc3OC(C)=O)CC2)CCO1 [Example 166]	>30	++	6.93	
Nc1c(Cl)cc(C(=O)NC[C@H]2CN(CC3CCN(C(=O)C4CCOC4)CC3)CCO2)c2c1CCO2 (stereo partly shown) [Example 232]		++	7.34	
COc1cc(N)c(Cl)cc1C(=O)NC[C@H]1CN(CC2CCN(C(=O)c3cccc(C)c3)CC2)CCO1 [Example 119]	>30	+	2.05	
COCC(=O)N1CCC(CN2CCO[C@@H](CNC(=O)c3cc(Cl)c(N)cc3OC)C2)CC1 [Example 132]	>30	++		
COc1cc(N)c(Cl)cc1C(=O)NC[C@H]1CN(CC2CCN(C(=O)c3ccc(C#N)cc3)CC2)CCO1 [Example 230]		++	0.64	
COc1cc(N)c(Cl)cc1C(=O)NC[C@H]1CN(CC2CCN(C(=O)C(C)=O)CC2)CCO1 [Example 227]		++	6.2	
CCOc1cc(N)c(Cl)cc1C(=O)NC[C@H]1CN(CC2CCN(C(=O)c3ccc(Cl)cc3)CC2)CCO1 [Example 116]	>30	+	0.68	
COc1cccc(C(=O)N2CCC(CN3CCO[C@@H](CNC(=O)c4cc(Cl)c(N)cc4OC)C3)CC2)c1 [Example 124]	>30	+	1.95	
COc1cc(N)c(Cl)cc1C(=O)NC[C@H]1CN(CC2CCN(C(=O)c3cocn3)CC2)CCO1 [Example 228]	>30	++	13.1	
COc1cc(N)c(Cl)cc1C(=O)NC[C@H]1CN(CC2CCN(C(=O)c3nc[nH]n3)CC2)CCO1 [Example 229]	>30	++	18.1	
